This note sets out measurements from ChEMBL document CHEMBL1150968, “Debromosceptrin, an alkaloid from the Caribbean sponge Agelas conifera” (1998).

Activity calls are given as the source filed them. The rule behind the calls is not given here.

Test [1] concerns Mycobacterium tuberculosis. Put plainly: Antimycobacterial activity against Mycobacterium tuberculosis at 12.5 ug/ml. In kind it is functional.
The subject of test [2] is Human immunodeficiency virus. Put plainly: Antiviral activity against HIV. In kind it is functional, organism-based.

For `Cl.Cl.Nc1ncc([C@H]2[C@H](CNC(=O)c3cc(Br)c[nH]3)[C@@H](CNC(=O)c3cc(Br)c[nH]3)[C@@H]2c2cnc(N)[nH]2)[nH]1` [SCEPTRIN HYDROCHLORIDE], in test [1], the Activity is on record as 14%.
As for `Nc1nc([C@H]2[C@H](CNC(=O)c3ccc[nH]3)[C@@H](CNC(=O)c3cc(Br)c[nH]3)[C@@H]2c2c[nH]c(N)n2)c[nH]1`, the outcome in test [2] was inactive.
`Nc1ncc([C@H]2[C@H](CNC(=O)c3ccc[nH]3)[C@@H](CNC(=O)c3ccc[nH]3)[C@@H]2c2cnc(N)[nH]2)[nH]1`: the outcome in test [2] was inactive.
With `Nc1nc([C@H]2[C@H](CNC(=O)c3cc(Br)c[nH]3)[C@@H](CNC(=O)c3cc(Br)c[nH]3)[C@@H]2c2c[nH]c(N)n2)c[nH]1`, the result in test [2] was inactive.
Compound `Cl.Cl.Nc1ncc([C@H]2[C@H](CNC(=O)c3ccc[nH]3)[C@@H](CNC(=O)c3cc(Br)c[nH]3)[C@@H]2c2cnc(N)[nH]2)[nH]1` [MONOBROMOSCEPTRIN] gave an Activity in test [1] of 35%.
